Target: T1, human PAD4 (Homo sapiens, UniProt Q9UM07)
T1 construct: human PAD4 (NM_012387), A2-P663, was PCR amplified; His-SUMO (N, cleaved yes); made in house; host or cells: E. coli BL21(DE3)
Assay: In vitro PAD4 BAEE biochemical assay
Details: BAEE substrate 3 mM, 5 nM PAD4, 2 mM calcium chloride; geometric mean of multiple experiments
In short: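 Recombinant human PAD4 (5 nM final) with 2 mM CaCl2 was preincubated with compound 30 min at 25 °C in MOPS buffer pH 7.6, then reacted with 3 mM BAEE for 2 h at 25 °C. After EDTA stop, released ammonia was detected by o-phthalaldehyde/DTT fluorescence (ex 405/em 535 nm); IC50 from four-parameter fit, geometric mean.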

T1 sequence (Q9UM07 2-663): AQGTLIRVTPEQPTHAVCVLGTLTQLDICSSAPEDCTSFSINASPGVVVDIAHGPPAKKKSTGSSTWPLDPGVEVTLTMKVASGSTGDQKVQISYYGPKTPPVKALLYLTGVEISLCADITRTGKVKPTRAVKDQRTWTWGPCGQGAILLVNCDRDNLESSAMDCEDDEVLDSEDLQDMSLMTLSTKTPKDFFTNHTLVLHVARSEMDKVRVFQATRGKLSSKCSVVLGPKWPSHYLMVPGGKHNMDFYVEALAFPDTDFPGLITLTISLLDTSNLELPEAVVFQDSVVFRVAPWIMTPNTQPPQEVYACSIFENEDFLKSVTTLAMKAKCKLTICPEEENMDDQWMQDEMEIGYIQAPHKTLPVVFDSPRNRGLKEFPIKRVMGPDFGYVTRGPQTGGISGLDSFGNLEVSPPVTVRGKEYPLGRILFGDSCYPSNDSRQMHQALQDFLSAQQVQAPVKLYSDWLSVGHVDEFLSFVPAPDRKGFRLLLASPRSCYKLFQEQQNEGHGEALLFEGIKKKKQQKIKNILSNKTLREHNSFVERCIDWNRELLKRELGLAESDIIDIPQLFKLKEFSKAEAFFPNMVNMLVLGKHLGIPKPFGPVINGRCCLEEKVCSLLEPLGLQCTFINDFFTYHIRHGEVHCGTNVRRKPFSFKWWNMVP

In order of falling IC50:
1. COc1cc(C(=O)N2C[C@H]3OC[C@@H]2[C@@H]3N)cc2nc(-c3cc4ccc5nc4n3CCCCCCC(C)(C)C(=O)N[C@@H]5C)n(C)c12 [Example 708, (11~{R})-17-[5-[(1~{R},4~{S), 7~{S})-7-amino-2-oxa-5-azabicyclo[2.2.1]heptane-5-carbonyl]-7-methoxy-1-methyl-benzimidazol-2-yl]-8,8,11-trimethyl-1,10,19-triazatricyclo[10.5.2.0^ {15,18}]nonadeca-12(19),13,15(18),16-tetraen-9-one]  0.091 µM
2. C[C@H]1NC(=O)c2ccc(Cl)nc2CCCCCn2c(-c3nc4cc(C(=O)N5C[C@H](N)[C@@H]6CC[C@H]5C6)cc(OC(F)(F)F)c4n3C)cc3ccc1nc32 [Example 714, (2~{R})-17-[5-[(1~{S},4~{R}, 5~{R})-4-amino-2-azabicyclo [3.2.1]octane-2-carbonyl]-1-methyl-7-(trifluoromethoxy)benzimidazol-2-yl]-8-chloro-2-methyl-3,9,16,22-tetrazatetracyclo[14.5.2.0^ {5,10).0^{19,23}]tricosa-1(22), 5(10),6,8,17,19(23),20-heptaen-4-one]  0.04 µM
3. CO[C@@H]1CCN(C(=O)c2cc(F)c3c(c2)nc(-c2cc4ccc5nc4n2CCCCC[C@]2(F)C[C@H]2C(=O)N[C@@H]5C)n3C2CC2)C[C@@H]1N [Example 704, (2~{R},5~{S},7~{S})-14-[5-[(3~{S},4~{R})-3-amino-4-methoxy-piperidine-1-carbonyl]-1-cyclopropyl-7-fluoro-benzimidazol-2-yl]-7-fluoro-2-methyl-3,13,19-triazatetracyclo[11.5.2.0^ {5,7}.0^{16,20}]icosa-1(19), 14,16(20),17-tetraen-4-one]  0.031 µM
4. C[C@H]1NC(=O)c2ccc(Cl)nc2CC[C@@H]2C[C@@H]2Cn2c(-c3nc4cc(C(=O)N5C[C@H](N)[C@@H]6CC[C@H]5C6)cc(F)c4n3C3CC3)cc3ccc1nc32 [Example 709, (3~{S),5~{R},16~{R})-22-[5-[(1~{S},4~{R},5~ {R})-4-amino-2-azabicyclo[3.2.1]octane-2-carbonyl]-1-cyclopropyl-7-fluoro-benzimidazol-2-yl]-10-chloro-16-methyl-1,9,15,24-tetrazapentacyclo[15.5.2.0^ {3,5}.0^{8,13}.0^{20,23}] tetracosa-8(13),9,11, 17(24),18,20(23),21-heptaen-14-one]  0.025 µM
5. C[C@H]1NC(=O)[C@@H]2C[C@]2(F)CCCCCn2c(-c3nc4cc(C(=O)N5C[C@H](N)[C@@H]6CC[C@H]5C6)cc(F)c4n3C3CC3)cc3ccc1nc32 [Example 712, (2~{R},5~{S},7~{R})-14-[5-[(1~{S},4~{R},5~ {R})-4-amino-2-azabicyclo [3.2.1]octane-2-carbonyl]-1-cyclopropyl-7-fluoro-benzimidazol-2-yl]-7-fluoro-2-methyl-3,13,19-triazatetracyclo[11.5.2.0^ {5,7}.0^{16,20}] icosa-1(19),14,16(20), 17-tetraen-4-one]  0.024 µM
6. COc1cc(C(=O)N2C[C@H]3OC[C@@H]2[C@@H]3N)cc2nc(-c3cc4ccc5nc4n3CC(F)(F)CCC[C@@H]3C[C@H]3C(=O)N[C@@H]5C)n(C)c12 [Example 707, (2~{R},5~{R},7~{R})-14-[5-[(1~{R},4~{S},7~ {S})-7-amino-2-oxa-5-azabicyclo[2.2.1]heptane-5-carbonyl]-7-methoxy-1-methyl-benzimidazol-2-yl]-11,11-difluoro-2-methyl-3,13,19-triazatetracyclo[11.5.2.0^ {5,7}.0^{16,20}]icosa-1(19),14,16(20),17-tetraen-4-one]  0.021 µM
7. C[C@@H]1[C@H](N)CCCN1C(=O)c1cc(F)c2c(c1)nc(-c1cc3ccc4nc3n1CCCCC[C@]1(F)C[C@H]1C(=O)N[C@@H]4C)n2C1CC1 [Example 705, (2~{R},5~{S},7~{S})-14-[5-[(2~{R},3~{R})-3-amino-2-methyl-piperidine-1-carbonyl]-1-cyclopropyl-7-fluoro-benzimidazol-2-yl]-7-fluoro-2-methyl-3,13,19-triazatetracyclo[11.5.2.0^ {5,7}.0^{16,20}]icosa-1(19),14,16(20),17-tetraen-4-one]  0.02 µM
8. COc1cc(C(=O)N2CCC[C@@H](N)[C@H]2C)cc2nc(-c3cc4ccc5nc4n3CCCCC[C@]3(F)C[C@H]3C(=O)N[C@@H]5C)n(C)c12 [Example 706, (2~{R},5~{S},7~{S})-14-[5-[(2~{R},3~{R})-3-amino-2-methyl-piperidine-1-carbonyl]-7-methoxy-1-methyl-benzimidazol-2-yl]-7-fluoro-2-methyl-3,13,19-triazatetracyclo[11.5.2.0^ {5,7}.0^{16,20}]icosa-1(19),14,16(20),17-tetraen-4-one]  0.019 µM
9. COc1cc(C(=O)N2C[C@H](N)[C@@H]3CC[C@H]2C3)cc2nc(-c3cc4ccc5nc4n3CCCCC[C@@]3(F)C[C@H]3C(=O)N[C@@H]5C)n(C)c12 [Example 711, (2~{R},5~{S},7~{R})-14-[5-[(1~{S),4~{R},5~{R})-4-amino-2-azabicyclo[3.2.1]octane-2-carbonyl]-7-methoxy-1-methyl-benzimidazol-2-yl]-7-fluoro-2-methyl-3,13,19-triazatetracyclo[11.5.2.0^ {5,7}.0^{16,20}]icosa-1(19), 14,16(20),17-tetraen-4-one]  0.019 µM
10. COc1cc(C(=O)N2C[C@H](N)[C@@H]3CC[C@H]2C3)cc2nc(-c3cc4ccc5nc4n3CCCCCc3nc(Cl)ccc3C(=O)N[C@@H]5C)n(C)c12 [Example 713, (2~{R})-17-[5-[(1~{S}, 4~{R},5~{R})-4-amino-2-azabicyclo[3.2.1]octane-2-carbonyl]-7-methoxy-1-methyl-benzimidazol-2-yl]-8-chloro-2-methyl-3,9,16,22-tetrazatetracyclo [14.5.2.0^{5,10).0^{19,23}] tricosa-1(22),5(10),6,8,17,19(23), 20-heptaen-4-one]  0.019 µM
11. C[C@H]1NC(=O)[C@@H]2C[C@@]2(F)CCCCCn2c(-c3nc4cc(C(=O)N5C[C@H](N)[C@@H]6CC[C@H]5C6)cc(OC(F)(F)F)c4n3C)cc3ccc1nc32 [Example 715, (2~{R},5~{S},7~{S})-14-[5-[(1~{S},4~{R},5~{R})-4-amino-2-azabicyclo[3.2.1]octane-2-carbonyl]-1-methyl-7-(trifluoromethoxy)benzimidazol-2-yl]-7-fluoro-2-methyl-3,13,19-triazatetracyclo[11.5.2.0^ {5,7}.0^{16,20}]icosa-1(19), 14,16(20),17-tetraen-4-one]  0.019 µM
12. C[C@H]1NC(=O)c2ccc(Cl)nc2CC[C@H]2C[C@H]2Cn2c(-c3nc4cc(C(=O)N5C[C@H](N)[C@@H]6CC[C@H]5C6)cc(F)c4n3C3CC3)cc3ccc1nc32 [Example 710, (3~{R),5~{S},16~{R})-22-[5-[(1~{S},4~{R},5~{R})-4-amino-2-azabicyclo[3.2.1]octane-2-carbonyl]-1-cyclopropyl-7-fluoro-benzimidazol-2-yl]-10-chloro-16-methyl-1,9,15,24-tetrazapentacyclo[15.5.2.0^ {3,5}.0^{8,13}.0^{20,23}] tetracosa-8(13),9,11,17(24), 18,20(23),21-heptaen-14-one]  0.018 µM

Reference: patent US11976083B2, “Inhibitors of peptidylarginine deiminases” (Gilead Sciences, Inc., priority 2020, dated 2024)
